Test results reported in patent US8987195B2 (priority 2012, dated 2015).
Read-outs that look alike come from different tables or passages of the source.

Tests used:
HCV genotype 1b replicon = experiment: HCV replicon assay, genotype 1b replicon EC50; format: cell-based, Hepatitis C virus; conditions: HCV replicon, genotype 1b, read-out: EC50 [gt-1b]
How it was run: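 Cells harbouring a stable replicon are grown under G418 selection, then plated with test compound in G418-free medium for 24-48 hours. After washing and lysis, RNA or luciferase signal is measured and expressed as percent of DMSO control to give EC50.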

[1] = biological target: HCV NS3/4A protease genotype 1b (Hepatitis C virus genotype 1b, UniProt P26663); experiment: HCV NS3/4A protease time-resolved fluorescence (TRF) assay, Ki against genotype 1b; format: biochemical; conditions: IC50 [gt-1b], NS3/4A protease TRF assay, genotype 1b enzyme 0.2 nM
How it was run: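 Enzyme 0.2 nM 1b / 0.4 nM A156T / 0.025 nM 3a; 30 min preinc. w/ cpd; 25 nM TRF peptide; 2.5 h RT; ex 340/em 615 time-delayed; 4-param IC50 → Ki = IC50/(1+[S]/KM).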

Structure (SMILES)	EC50 (HCV genotype 1b replicon; Hepatitis C virus, K+ salt)	IC50 ([1]; K+ salt)	EC50 (HCV genotype 1b replicon; K+ salt)	EC50 (HCV genotype 1b replicon; Hepatitis C virus)	IC50 [1]
COc1ccc2nc(C)c3c(c2c1)CC[C@]1(C[C@H]2C(=O)N[C@]4(C(=O)NS(=O)(=O)C5(C)CC5)C[C@H]4/C=C\CCCCC[C@H](NC(=O)OC(C(C)C)C(F)(F)F)C(=O)N2C1)O3 (stereo partly drawn) [Example 407, 1,1,1-trifluoro-3-methylbutan-2-yl [(2R,6S,12Z,13aS,14aR,16aS)-9′-methoxy-5′-methyl-14a-{[(1-methylcyclopropyl)sulfonyl]carbamoyl}-5,16-dioxo-1,1′,2′,5,6,7,8,9,10,11,13a,14,14a,15,16,16a-hexadecahydrospiro[cyclopropa[e]pyrrolo[1,2-a][1,4]diazacyclopentadecine-2,3′-pyrano[2,3-c]quinolin]-6-yl]carbamate]	1.5 nM	0.019 nM			
COc1ccc2nc(C)c3c(c2c1)CC[C@]1(C[C@H]2C(=O)N[C@]4(C(=O)NS(=O)(=O)C5(C)CC5)C[C@H]4/C=C\CCCCC[C@H](NC(=O)OC(C(C)C)C(F)(F)F)C(=O)N2C1)O3 (stereo partly drawn) [Example 408, 1,1,1-trifluoro-3-methylbutan-2-yl [(2R,6S,12Z,13aS,14aR,16aS)-9′-methoxy-5′-methyl-14a-{[(1-methylcyclopropyl)sulfonyl]carbamoyl}-5,16-dioxo-1,1′,2′,5,6,7,8,9,10,11,13a,14,14a,15,16,16a-hexadecahydrospiro[cyclopropa[e]pyrrolo[1,2-a][1,4]diazacyclopentadecine-2,3′-pyrano[2,3-c]quinolin]-6-yl]carbamate]		0.023 nM	1.23 nM		
COCCOc1ccc2nc(C)c3c(c2c1)CC[C@]1(C[C@H]2C(=O)N[C@]4(C(=O)NS(=O)(=O)C5(C)CC5)C[C@H]4/C=C\CCCCC[C@H](NC(=O)OC(C)(C)C)C(=O)N2C1)O3 [Example 409, tert-butyl [(2R,6S,12Z,13aS,14aR,16aS)-9′-(2-methoxyethoxy)-5′-methyl-14a-{[(1-methylcyclopropyl)sulfonyl]carbamoyl}-5,16-dioxo-1,1′,2′,5,6,7,8,9,10,11,13a,14,14a,15,16,16a-hexadecahydrospiro[cyclopropa[e]pyrrolo[1,2-a][1,4]diazacyclopentadecine-2,3′-pyrano[2,3-c]quinolin]-6-yl]carbamate]				4.73 nM	0.02 nM
COCCOc1ccc2nc(C)c3c(c2c1)CC[C@]1(C[C@H]2C(=O)N[C@]4(C(=O)NS(=O)(=O)C5(C)CC5)C[C@H]4/C=C\CCCCC[C@H](NC(=O)OCC(C)(C)C)C(=O)N2C1)O3 [Example 410, 2,2-dimethylpropyl [(2R,6S,12Z,13aS,14aR,16aS)-9′-(2-methoxyethoxy)-5′-methyl-14a-{[(1-methylcyclopropyl)sulfonyl]carbamoyl}-5,16-dioxo-1,1′,2′,5,6,7,8,9,10,11,13a,14,14a,15,16,16a-hexadecahydrospiro[cyclopropa[e]pyrrolo[1,2-a][1,4]diazacyclopentadecine-2,3′-pyrano[2,3-c]quinolin]-6-yl]carbamate]				3.1 nM	0.011 nM
COCCOc1ccc2nc(C)c3c(c2c1)CC[C@]1(C[C@H]2C(=O)N[C@]4(C(=O)NS(=O)(=O)C5(C)CC5)C[C@H]4/C=C\CCCCC[C@H](NC(=O)OCC(C)C)C(=O)N2C1)O3 [Example 411, 2-methylpropyl [(2R,6S,12Z,13aS,14aR,16aS)-9′-(2-methoxyethoxy)-5′-methyl-14a-{[(1-methylcyclopropyl)sulfonyl]carbamoyl}-5,16-dioxo-1,1′,2′,5,6,7,8,9,10,11,13a,14,14a,15,16,16a-hexadecahydrospiro[cyclopropa[e]pyrrolo[1,2-a][1,4]diazacyclopentadecine-2,3′-pyrano[2,3-c]quinolin]-6-yl]carbamate]				5.77 nM	0.064 nM
COc1ccc2nc(C3CC3)c3c(c2c1)CC[C@]1(C[C@H]2C(=O)N[C@]4(C(=O)NS(=O)(=O)C5(C)CC5)C[C@H]4/C=C\CCCCC[C@H](NC(=O)O[C@@H](C)C(C)C)C(=O)N2C1)O3 [Example 412, (2S)-3-methylbutan-2-yl [(2R,6S,12Z,13aS,14aR,16aS)-5′-cyclopropyl-9′-methoxy-14a-{[(1-methylcyclopropyl)sulfonyl]carbamoyl}-5,16-dioxo-1,1′,2′,5,6,7,8,9,10,11,13a,14,14a,15,16,16a-hexadecahydrospiro[cyclopropa[e]pyrrolo[1,2-a][1,4]diazacyclopentadecine-2,3′-pyrano[2,3-c]quinolin]-6-yl]carbamate]	1.42 nM	0.038 nM			
COc1ccc2nc(C3CC3)c3c(c2c1)CC[C@]1(C[C@H]2C(=O)N[C@]4(C(=O)NS(=O)(=O)C5(C)CC5)C[C@H]4/C=C\CCCCC[C@H](NC(=O)O[C@H](C)C(C)C)C(=O)N2C1)O3 [Example 413, (2R)-3-methylbutan-2-yl [(2R,6S,12Z,13aS,14aR,16aS)-5′-cyclopropyl-9′-methoxy-14a-{[(1-methylcyclopropyl)sulfonyl]carbamoyl}-5,16-dioxo-1,1′,2′,5,6,7,8,9,10,11,13a,14,14a,15,16,16a-hexadecahydrospiro[cyclopropa[e]pyrrolo[1,2-a][1,4]diazacyclopentadecine-2,3′-pyrano[2,3-c]quinolin]-6-yl]carbamate]	2.53 nM	0.021 nM			
Cc1nc2ccccc2c2c1O[C@]1(CC2)C[C@H]2C(=O)N[C@]3(C(=O)NS(=O)(=O)C4(C)CC4)C[C@H]3/C=C\CCCCC[C@H](Nc3cc(C(F)(F)F)ccn3)C(=O)N2C1 [Example 414, (2R,6S,12Z,13aS,14aR,16aS)-5′-methyl-N-[(1-methylcyclopropyl)sulfonyl]-5,16-dioxo-6-{[4-(trifluoromethyl)pyridin-2-yl]amino}-1,1′,2′,6,7,8,9,10,11,13a,14,15,16,16a-tetradecahydrospiro[cyclopropa[e]pyrrolo[1,2-a][1,4]diazacyclopentadecine-2,3′-pyrano[2,3-c]quinoline]-14a(5H)-carboxamide]				5.16 nM	0.047 nM
COc1cccc(N[C@H]2CCCCC/C=C\[C@@H]3C[C@@]3(C(=O)NS(=O)(=O)C3(C)CC3)NC(=O)[C@@H]3C[C@]4(CCc5c(c(C)nc6ccccc56)O4)CN3C2=O)n1 [Example 415, (2R,6S,12Z,13aS,14aR,16aS)-6-[(6-methoxypyridin-2-yl)amino]-5′-methyl-N-[(1-methylcyclopropyl)sulfonyl]-5,16-dioxo-1,1′,2′,6,7,8,9,10,11,13a,14,15,16,16a-tetradecahydrospiro[cyclopropa[e]pyrrolo[1,2-a][1,4]diazacyclopentadecine-2,3′-pyrano[2,3-c]quinoline]-14a(5H)-carboxamide]				16.3 nM	0.118 nM
Cc1ccc2nc(C(F)(F)F)c3c(c2c1)CC[C@]1(C[C@H]2C(=O)N[C@]4(C(=O)NS(=O)(=O)C5(C)CC5)C[C@H]4/C=C\CCCCC[C@H](NC(=O)OCCN4CCCC4)C(=O)N2C1)O3 [Example 416, 2-(pyrrolidin-1-yl)ethyl [(2R,6S,12Z,13aS,14aR,16aS)-9′-methyl-14a-{[(1-methylcyclopropyl)sulfonyl]carbamoyl}-5,16-dioxo-5′-(trifluoromethyl)-1,1′,2′,5,6,7,8,9,10,11,13a,14,14a,15,16,16a-hexadecahydrospiro[cyclopropa[e]pyrrolo[1,2-a][1,4]diazacyclopentadecine-2,3′-pyrano[2,3-c]quinolin]-6-yl]carbamate]				272 nM	0.164 nM
Cc1ccc2nc(C(F)(F)F)c3c(c2c1)CC[C@]1(C[C@H]2C(=O)N[C@]4(C(=O)NS(=O)(=O)C5(C)CC5)C[C@H]4/C=C\CCCCC[C@H](NC(=O)OCCN4CCCCC4)C(=O)N2C1)O3 [Example 417, 2-(piperidin-1-yl)ethyl [(2R,6S,12Z,13aS,14aR,16aS)-9′-methyl-14a-{[(1-methylcyclopropyl)sulfonyl]carbamoyl}-5,16-dioxo-5′-(trifluoromethyl)-1,1′,2′,5,6,7,8,9,10,11,13a,14,14a,15,16,16a-hexadecahydrospiro[cyclopropa[e]pyrrolo[1,2-a][1,4]diazacyclopentadecine-2,3′-pyrano[2,3-c]quinolin]-6-yl]carbamate]				45.3 nM	0.094 nM
Cc1nc2ccc(OCCN3CCOCC3)cc2c2c1O[C@]1(CC2)C[C@H]2C(=O)N[C@]3(C(=O)NS(=O)(=O)C4(C)CC4)C[C@H]3/C=C\CCCCC[C@H](NC(=O)OC(C)(C)C)C(=O)N2C1 [Example 418, tert-butyl {(2R,6S,12Z,13aS,14aR,16aS)-5′-methyl-14a-{[(1-methylcyclopropyl)sulfonyl]carbamoyl}-9′-[2-(morpholin-4-yl)ethoxy]-5,16-dioxo-1,1′,2′,5,6,7,8,9,10,11,13a,14,14a,15,16,16a-hexadecahydrospiro[cyclopropa[e]pyrrolo[1,2-a][1,4]diazacyclopentadecine-2,3′-pyrano[2,3-c]quinolin]-6-yl}carbamate]				6.24 nM	0.008 nM
COc1ccc2nc(C(C)C)c3c(c2c1)[C@H](F)C[C@]1(C[C@H]2C(=O)N[C@]4(C(=O)NS(=O)(=O)C5(C)CC5)C[C@H]4/C=C\CCCCC[C@H](NC(=O)O[C@@H](C)C(C)C)C(=O)N2C1)O3 [Example 419, (2S)-3-methylbutan-2-yl [(1′R,2S,6S,12Z,13aS,14aR,16aS)-1′-fluoro-9′-methoxy-14a-{[(1-methylcyclopropyl)sulfonyl]carbamoyl}-5,16-dioxo-5′-(propan-2-yl)-1,1′,2′,5,6,7,8,9,10,11,13a,14,14a,15,16,16a-hexadecahydrospiro[cyclopropa[e]pyrrolo[1,2-a][1,4]diazacyclopentadecine-2,3′-pyrano[2,3-c]quinolin]-6-yl]carbamate]	1.75 nM	0.038 nM			
